Drawing on ChEMBL document CHEMBL5528062 (J Med Chem, 2024), this text covers Activity for two compounds.

Assay [1] has as its system Mycobacterium tuberculosis. In words: Induction of resistance development in Mycobacterium tuberculosis harbouring katG F594C mutant assessed as resistance frequency at 5 times of MIC by visual analysis. It is filed as functional.
In assay [2] the test system is Mycobacterium tuberculosis. In words: Induction of resistance development in Mycobacterium tuberculosis harbouring atpE gene assessed as resistance frequency at 5 times of MIC by visual analysis. It is filed as functional.

SMILES strings stand for the structures.

As to `C[C@]1(COc2ccc(N3CCC(Oc4ccc(OC(F)(F)F)cc4)CC3)cc2)Cn2cc([N+](=O)[O-])nc2O1`, in assay [1], the Activity was 2%.

Turning to `COc1nc2ccc(Br)cc2cc1[C@@H](c1ccccc1)[C@@](O)(CCN(C)C)c1cccc2ccccc12` [BEDAQUILINE], the Activity in assay [1] came out at 5.26%; in assay [2] it was 17.3%.
